{"source": "patent US20040254629A1", "about": "“Methods and apparatus for treatment of aneurysmal tissue” (priority 2003, published 2004)", "key": {"[1]": {"test_system": "MMP-9 expression in stimulated human-derived white blood cells", "assay": "Combination therapeutic assay, MMP-9 content", "assay_type": "cell-based", "conditions": "DOX at 5.69 ug/ml, DEX at 1 ug/ml, alone or combined; 24 hours at 37° C.", "protocol": "Next, to test the effect of therapeutics in combination, assays were performed to determine the effect of doxycycline alone (DOX at 5.69 ug/ml); dexamethasone alone (DEX at 1 ug/ml) and the effect of a combination of doxycycline and dexamethasone (DOX at 5.69 ug/ml)+DEX at 1 ug/ml). Dexamethasone is a potent agent with broad anti-inflammatory (against cytokines, chemokines, prostaglandins, etc.) and immunosuppressive properties. Dexamethasone also has known anti-angiogenic properties. Doxycycline was used as the MMP inhibitor for these studies.\nBriefly, human-derived white blood cells were placed in a 24 well plate and exposed to a stimulant (PHA or lipopolysaccharide (LPS)) and the three different treatment regimes for a period of 24 hours at 37° C. The supernatants were then collected and assayed for MMP-9 and IL-1 content."}, "[2]": {"test_system": "MMP-9 secretion from PHA-stimulated human white blood cells", "assay": "MMP assay: effect of doxycycline on MMP-9 secretion from PHA-stimulated human white blood cells", "assay_type": "cell-based", "conditions": "PHA 10 μg/ml", "protocol": "To perform an MMP assay to assess the effect of doxycycline on human-derived white blood cells, cells were seeded into 24 well tissue culture plates. The drug concentrations selected for the experiment were based on measured tissue levels of doxycycline following an oral dose of 100 mg. The cells were exposed to the drugs under two schemes. In scheme 1, the cells, the stimulant and the drug were all added at the same time and allowed to incubate for a period of 24 hours. In scheme 2 the cells were preconditioned with the drug for a period of 24 hours and then stimulated with PHA for an additional 24 hours. In this case the total experimental time duration was 48 hours. The seeding densities: 5×10^6 cells per well and assay conditions were as follows: PHA at a working concentration of 10 μg/ml; doxycycline concentrations at 0, 2.5, 5, 10, 12, or 15 μM and either a 24 hour (scheme 1) or 48 hour (scheme 2) duration. MMP-9 analysis was performed using a Quantikine Human MMP-9 (total) Immunoassay (R&D Systems, #DMP900)."}, "[3]": {"assay": "Stability assay of doxycycline and dexamethasone in combination", "assay_type": "physicochemical", "conditions": "DOX (56.9 ug/ml)+DEX (10 ug/ml) mixture, 4 days at 37° C.", "protocol": "A stability assay was first performed to ascertain whether doxycycline and dexamethasone react with one another. High concentrations of each solution were combined (DOX (56.9 ug/ml)+DEX (10 ug/ml)) and allowed to incubate for 4 days at 37° C. in an orbital shaker. At the end of four days the concentrations of each drug in the mixture was determined by spectrophotometry and compared to the original concentrations."}, "[4]": {"test_system": "IL-1α expression in stimulated human-derived white blood cells", "assay": "Combination therapeutic assay, IL-1α content", "assay_type": "cell-based", "conditions": "DOX at 5.69 ug/ml, DEX at 1 ug/ml, alone or combined; 24 hours at 37° C.", "protocol": "To assay for cytokine concentration, the solution in each test well was transferred to microcentrifuge tubes and centrifuged (3000 rpm) for 5 minutes to pellet any cells that were drawn from the wells. The supernatants were then transferred to fresh tubes and stored in a minus 85° C. freezer until used. The cytokine content in the stored supernatants was determined using commercially available cytokine ELISA- (enzyme linked immunosorbent assays) based assays from, for example, R&D Systems, Minneapolis, Minn., using the manufacturer's instructions. Essentially, the procedure was as follows: first, 200 μl of the test samples were added to each well of the microplates. The wells of the microplates were precoated with monoclonal antibodies specific to the cytokine being analyzed. All lipopolysaccharide-(LPS) treated samples were diluted 1:10 in RPMI growth media prior to the assay. The plates were covered and incubated for 2 hours at room temperature. Each well was then washed three times with wash buffer (350 μl/well), and 200 μl of cytokine conjugate were added to each well, covered, and incubated for 1 hour at room temperature. Next, 200 μl of substrate solution were added to each well and incubated for 20 minutes at room temperature. […] The optical density readings of the color development were determined in a microplate reader set at 450 nm wavelength. […]"}, "[5]": {"test_system": "MMP-9 secretion from human-derived white blood cells", "assay": "MMP assay development: effect of stimulants on MMP-9 release from human-derived white blood cells", "assay_type": "cell-based", "conditions": "PHA 10 μg/ml alone, five million (5M) cells per well, 24 hours at 37° C.", "text": "MMP assay development involved two separate determinations. The first set of experiments established the working conditions for the assay, namely the optimal cell density and the choice and concentration of stimulant. MMP-9 is secreted by monocytes, macrophages, and neutrophils, amongst other cells; however, under non-stimulatory in vitro conditions the basal level secretion of MMP-9 by these cells is very low. Thus, for the second set of experiments (performed to determine the inhibitory effects of potential drugs or reagents), the levels of MMP secretion were raised to sufficiently high levels so that drug-mediated differences could be detected.\nHuman-derived white blood cells were isolated from human blood by a procedure such as that described above. The total cell population was adjusted and added to 24 well polystyrene tissue culture plates in the following cell densities: 5 million, 2 million, 1 million and 0.5 million per well. The stimulants used to stimulate MMP secretion were PMA (phorbol 12-myristate 13-acetate, Sigma #P8139) at a working concentration of 100 nM; PHA (phythohemagglutinin, Sigma #L9017) at a working concentration of 10 μg/ml; and PMA (100 nM)+PHA (10 μg/ml). […] The secreted MMP was determined by ELISA using a Quantikine Human MMP-9 (total) Immunoassay (R&D Systems, #DMP900)."}, "[6]": {"conditions": "cited from earlier work; for elimination / clearance route: in vivo"}, "ACE": {"molecular_target": "ACE (Homo sapiens, UniProt P12821)", "sequence (P12821 30-1306, species assumed)": "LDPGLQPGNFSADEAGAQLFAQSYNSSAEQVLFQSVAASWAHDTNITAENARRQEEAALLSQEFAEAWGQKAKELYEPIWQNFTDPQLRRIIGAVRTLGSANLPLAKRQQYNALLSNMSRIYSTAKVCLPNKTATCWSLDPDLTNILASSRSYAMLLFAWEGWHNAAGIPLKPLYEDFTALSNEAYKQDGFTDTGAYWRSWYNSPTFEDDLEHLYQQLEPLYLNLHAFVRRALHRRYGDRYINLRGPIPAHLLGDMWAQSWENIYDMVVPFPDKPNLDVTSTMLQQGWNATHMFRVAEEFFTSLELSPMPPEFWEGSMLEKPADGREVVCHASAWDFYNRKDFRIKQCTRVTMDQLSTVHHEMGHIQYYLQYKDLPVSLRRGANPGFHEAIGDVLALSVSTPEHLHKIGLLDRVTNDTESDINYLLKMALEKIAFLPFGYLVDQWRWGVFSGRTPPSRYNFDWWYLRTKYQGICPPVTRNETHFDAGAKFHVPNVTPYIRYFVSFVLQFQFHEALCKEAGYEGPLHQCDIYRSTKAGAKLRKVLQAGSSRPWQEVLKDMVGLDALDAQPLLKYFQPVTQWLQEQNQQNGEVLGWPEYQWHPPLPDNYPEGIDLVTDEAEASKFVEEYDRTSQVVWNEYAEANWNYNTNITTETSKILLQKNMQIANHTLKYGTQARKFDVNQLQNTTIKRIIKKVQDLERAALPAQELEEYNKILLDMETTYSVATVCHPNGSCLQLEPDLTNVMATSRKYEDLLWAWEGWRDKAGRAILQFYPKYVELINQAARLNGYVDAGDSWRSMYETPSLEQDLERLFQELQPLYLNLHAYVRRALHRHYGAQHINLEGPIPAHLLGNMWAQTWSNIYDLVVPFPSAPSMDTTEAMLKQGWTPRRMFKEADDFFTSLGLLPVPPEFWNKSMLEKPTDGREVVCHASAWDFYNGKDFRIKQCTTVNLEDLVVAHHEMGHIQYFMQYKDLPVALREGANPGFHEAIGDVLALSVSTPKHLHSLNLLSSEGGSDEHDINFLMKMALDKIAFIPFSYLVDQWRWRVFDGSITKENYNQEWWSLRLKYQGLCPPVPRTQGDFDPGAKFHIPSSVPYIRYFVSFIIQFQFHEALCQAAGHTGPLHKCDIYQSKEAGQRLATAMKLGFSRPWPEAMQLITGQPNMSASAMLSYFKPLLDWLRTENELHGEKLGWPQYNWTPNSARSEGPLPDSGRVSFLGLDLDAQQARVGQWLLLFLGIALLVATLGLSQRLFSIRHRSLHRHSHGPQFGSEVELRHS", "conditions": "in vitro; cited from earlier work"}}, "data": [{"compound": "CC1c2cccc(O)c2C(=O)C2=C(O)C3(O)C(=O)C(C(N)=O)=C(O)C(N(C)C)C3C(O)C21.O", "note": "(stereo not shown) [DOX, 4-(Dimethylamino)-1,4,4a,5,5a,6,11, 12a-octahydro-3,5,10,12,12a-pentahydroxy-6-methyl-1,11-dioxo-2-naphthacenecarboxamide monohydrate]", "values": [{"measurement": "inhibition of MMP-9 compared to the control", "setting": "[1]", "result": "approximately 32%"}, {"measurement": "effect on MMP-9 expression over 0-15 μM", "setting": "[2]; doxycycline 0, 2.5, 5, 10, 12, or 15 μM", "result": "dose-dependent inhibitory effect"}, {"measurement": "inhibition of MMP-9 expression", "setting": "[2]; doxycycline at 15 μM, 5×10^6 cells per well, scheme 1 (24 hour) or scheme 2 (48 hour)", "result": "~60", "unit": "%"}, {"measurement": "Final Concentration", "setting": "[3]; MES buffer", "result": "˜56.7 ug/ml"}, {"measurement": "Final Concentration", "setting": "[3]; PBS buffer", "result": "˜57.5/ml ug/ml"}, {"measurement": "inhibition of IL expression compared to the control", "setting": "[4]", "result": "no effect on inflammatory cytokine expression"}]}, {"compound": "phythohemagglutinin [PHA]", "values": [{"measurement": "increase in MMP-9 secretion over basal levels", "setting": "[5]", "result": "greater than 200 fold"}]}, {"compound": "CCOC(=O)[C@H](CCc1ccccc1)N[C@@H](C)C(=O)N1CC2(C[C@H]1C(=O)O)SCCS2", "note": "[spirapril]", "values": [{"measurement": "elimination / clearance route", "setting": "[6]", "result": "balanced elimination by the liver and kidneys"}]}, {"compound": "CCC(=O)O[C@@H](O[P@](=O)(CCCCc1ccccc1)CC(=O)N1C[C@H](C2CCCCC2)C[C@H]1C(=O)O)C(C)C", "note": "[fosinopril]", "values": [{"measurement": "elimination / clearance route", "setting": "[6]", "result": "balanced elimination by the liver and kidneys"}]}, {"compound": "C[C@@H]1C[C@H]2[C@@H]3CCC4=CC(=O)C=C[C@]4(C)[C@@]3(F)[C@@H](O)C[C@]2(C)[C@@]1(O)C(=O)CO", "note": "[DEX, dexamethasone]", "values": [{"measurement": "inhibition of IL expression compared to the control", "setting": "[4]", "result": "approximately 85%"}]}, {"compound": "NCCCC[C@H](N[C@@H](CCc1ccccc1)C(=O)O)C(=O)N1CCC[C@H]1C(=O)O", "note": "[lisinopril]", "values": [{"measurement": "ACE inhibitor potency compared with enalaprilat", "setting": "ACE", "result": "slightly more potent"}, {"measurement": "time of peak concentrations in the plasma", "setting": "[6]; oral administration", "result": "about 7 hours"}]}, {"compound": "C[C@H](CS)C(=O)N1CCC[C@H]1C(=O)O", "note": "[captopril]", "values": [{"measurement": "bioavailability", "setting": "[6]; given orally", "result": "about 75%"}]}]}
